The text below walks through data of US8835467B2, “SIR2 regulation” (Albert Einstein College of Medicine of Yeshiva University, priority 2003, dated 2014).

In the experiment the target is T1, Mouse SIR2 enzyme (SIR2α) (Mus musculus, UniProt Q923E4).
T1 construct: purchased Upstate Group
T1 sequence (Q923E4 1-737): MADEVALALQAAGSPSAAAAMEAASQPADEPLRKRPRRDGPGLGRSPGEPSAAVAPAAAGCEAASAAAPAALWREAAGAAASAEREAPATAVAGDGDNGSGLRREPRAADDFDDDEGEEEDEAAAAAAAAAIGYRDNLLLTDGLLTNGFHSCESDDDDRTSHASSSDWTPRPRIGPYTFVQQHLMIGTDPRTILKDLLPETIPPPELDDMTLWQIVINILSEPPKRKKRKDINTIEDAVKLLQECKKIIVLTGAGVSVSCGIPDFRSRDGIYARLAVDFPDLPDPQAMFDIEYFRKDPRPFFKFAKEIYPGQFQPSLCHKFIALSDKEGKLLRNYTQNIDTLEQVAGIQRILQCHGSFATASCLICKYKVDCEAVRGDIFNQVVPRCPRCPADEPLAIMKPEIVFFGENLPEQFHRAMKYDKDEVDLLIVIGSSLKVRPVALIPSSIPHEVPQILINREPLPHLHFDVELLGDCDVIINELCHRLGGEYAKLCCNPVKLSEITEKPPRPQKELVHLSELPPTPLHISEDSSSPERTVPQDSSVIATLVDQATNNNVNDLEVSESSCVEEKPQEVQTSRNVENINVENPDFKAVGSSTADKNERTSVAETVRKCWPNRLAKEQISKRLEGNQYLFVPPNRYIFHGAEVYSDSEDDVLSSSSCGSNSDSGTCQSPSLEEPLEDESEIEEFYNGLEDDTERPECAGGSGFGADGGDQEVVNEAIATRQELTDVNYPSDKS
Description: SIR2 deacetylation assay (p53 peptide, HPLC of ADPR and 3′-O-acetyl-ADPR). Type of experiment: biochemical. Here is the method:
After 2 hours, aliquots of 10 μL removed at 0, 30, 60, 90 and 120 min. Each aliquot was combined with 50 μL 50 mM ammonium acetate pH 5.0 to quench and assayed by HPLC for deacetylation products and NAD^+. The chromatograms (260 nm) were obtained using 50 mM ammonium acetate pH 5.0 as eluant on a semi-preparative Waters C-18 column (2.0 mL/min flow rate). Peaks for ADPR and 3′-O-Acetyl-ADPR were quantified by integration. The peak for NAD^+ was collected and radiation counted.
Reactions were as above but base reactions contained 5 mM of pyrazinamide, isonicotinamide, thionicotinamide, or benzamide. Reactions were carried out (2 hours for AF2 and yeast enzymes and 3 hours for mouse enzyme) at 37° C. and quenched by addition of 80 μL 50 mM ammonium acetate pH 5.0. Product formation was quantified by HPLC. […] Rates were compared with controls lacking added base.

As usually defined, the inhibition is the percentage by which the read-out fell short of the control. A high value points to a strong effect. For the molecule `NC(=O)c1ccncc1` [Isonicotinamide], the inhibition at 5000 µM stood at 18%.
